Like-named read-outs stand apart in the source and are kept apart here.
Key:
Assay type in all cases: cell-based
[1] = system: mouse fibroblast L929; assay: MTT antiproliferative assay, L929; conditions: 0–50 μM, read-out: Antiproliferative activity IC50 ± SEM, L929
Procedure: (§1) The in vitro antiproliferative activity of 33 TMPH compounds was evaluated by MTT assay ([Medica et al., 2022]). Five types of TNBC-related cell lines (human breast cancer MCF-7 and MDA-MB-231, mouse breast cancer 4T1, mouse fibroblast L929, and human umbilical vein endothelial HUVEC cell lines) were used. The cell lines were obtained from the Shanghai Institute of Biochemistry and Cell Biology of the Chinese Academy of Sciences (Shanghai, China). The cell lines were cultured in DMEM supplemented with 1% penicillin–streptomycin solution (100×) and 10% FBS at 37°C under a humid atmosphere containing 5% CO2. After cell passage, cryopreservation, and resuscitation, the growth-inhibitory effects against the five cell lines were determined by MTT assay. The 33 TMPH compounds and the reference control drug cisplatin were dissolved in 0.1% DMSO solution. The cell lines were maintained in 96-well plates and subjected to each test compound (0–50 μM) at 37°C for 48 h. After treatment with 1 mg/ml MTT solution for 4 h, the formazan crystals were dissolved in each well. A microplate reader (Varioskan Flash 3001, Thermo Scientific) was used to determine the cell viability at 490 nm, and each experiment was repeated four times. The collected data were expressed as the mean ± SEM. The inhibitory concentration of the 34 compounds at 50% (IC50) was calculated via concentration–inhibition relationship regression by SPSS software.

[2] = system: human umbilical vein endothelial HUVEC; assay: MTT antiproliferative assay, HUVEC; conditions: 48 h, 0–50 μM, read-out: Antiproliferative activity IC50 ± SEM, HUVEC
Procedure: as §1

[3] = system: mouse breast cancer 4T1; assay: MTT antiproliferative assay, 4T1; conditions: 48 h, 0–50 μM, read-out: Antiproliferative activity IC50 ± SEM, 4T1
Procedure: as §1

[4] = system: human breast cancer MDA-MB-231; assay: MTT antiproliferative assay, MDA-MB-231; conditions: for IC50: MTT, 48 h, 0–50 μM, read-out: Antiproliferative activity IC50 ± SEM, MDA-MB-231; for SI, selectivity index: SI = IC50 (L929)/IC50 (MDA-MB-231)
Procedure: as §1

[5] = system: human breast cancer MCF-7; assay: MTT antiproliferative assay, MCF-7; conditions: 0–50 μM, read-out: Antiproliferative activity IC50 ± SEM, MCF-7
Procedure: as §1

[6] = system: MCF-7, MDA-MB-231, 4T1, L929 and HUVEC cell lines; assay: MTT antiproliferative assay, statements over all five tested cell lines; conditions: range over all five tested cell lines, read-out: IC50 values ranging over the tested cell lines
Procedure: as §1

IC50 ([3]; Mus musculus) [µM] | IC50 ([4]; Homo sapiens, MDA-MB-231) [µM] | IC50 ([5]; Homo sapiens, MCF7, 48 h) [µM] | SMILES | IC50 ([1]; Mus musculus, L929, 48 h) [µM] | IC50 ([2]; Homo sapiens, HUVEC) [µM] | SI, selectivity index [4] | IC50 [6] [µM] | IC50 ([1]; 48 h) [µM] | IC50 [2] [µM] | IC50 [3] [µM] | IC50 [4] [µM] | IC50 ([5]; 48 h) [µM]
> 20 | 2.52 ± 0.08 | 10.99 ± 0.06 | Cc1nc(C)c(C(=O)NCCCCCCCCNC(=O)C=Cc2ccccc2)nc1C [8–1] | 16.58 ± 0.12 | > 20 | 6.58 |  |  |  |  |  | 
19.86 ± 0.16 | 6.1 ± 0.16 | 6.62 ± 0.15 | Cc1nc(C)c(C(=O)NCCCCCCCCNC(=O)c2cc3ccccc3o2)nc1C [8–2] | > 20 | 4.27 ± 0.07 | >3.28 |  |  |  |  |  | 
19.5 ± 0.45 | 3.39 ± 0.12 | 4.15 ± 0.02 | Cc1nc(C)c(C(=O)NCCCCCCCCNC(=O)c2cc3ccccc3s2)nc1C [8–3] | 4.12 ± 0.32 | 9.78 ± 0.05 | 1.22 | 1.61 to 19.5 |  |  |  |  | 
> 20 | 5.77 ± 0.09 | 6.21 ± 0.14 | Cc1nc(C)c(C(=O)NCCCCCCCCNC(=O)c2cc3ccccc3[nH]2)nc1C [8–4] | 10.7 ± 0.43 | > 20 | 1.85 |  |  |  |  |  | 
2.07 ± 0.04 | 3.44 ± 0.16 | 4.96 ± 0.25 | Cc1nc(C)c(C(=O)NCCCCCCCCNC(=O)c2cnc3ccccc3c2)nc1C [8–5] | 3.49 ± 0.28 | > 20 | 1.01 |  |  |  |  |  | 
1.94 ± 0.03 | 1.02 ± 0.15 | > 20 | Cc1nc(C)c(C(=O)NCCCCCCCCNC(=O)c2ccc3ncccc3c2)nc1C [8–6] | > 20 | > 20 | >19.61 |  |  |  |  |  | 
3.74 ± 0.19 | 8.45 ± 0.14 | > 20 | Cc1nc(C)c(C(=O)NCCCCCCCCNC(=O)c2ccc3cc[nH]c3c2)nc1C [8–9] | > 20 | > 20 | >2.37 |  |  |  |  |  | 
2.48 ± 0.24 | 6.67 ± 0.16 | 2.84 ± 0.21 | Cc1nc(C)c(C(=O)NCCCCCCCCNC(=O)C=Cc2ccc(Cl)cc2)nc1C [8–10] | 5.48 ± 0.06 | 4.54 ± 0.01 | 0.82 | 1.61 to 19.5 |  |  |  |  | 
12 ± 0.46 | 5.05 ± 0.02 | > 20 | COc1ccc(C=CC(=O)NCCCCCCCCNC(=O)c2nc(C)c(C)nc2C)cc1OC [8–11] | > 20 | 10.35 ± 0.03 | >3.96 |  |  |  |  |  | 
10.2 ± 0.32 | 11.2 ± 0.12 | 5.38 ± 0.13 | COc1cc(C=CC(=O)NCCCCCCCCNC(=O)c2nc(C)c(C)nc2C)cc(OC)c1OC [8–12] | > 20 | > 20 | >1.78 |  |  |  |  |  | 
13.7 ± 0.24 | 2.44 ± 0.09 | > 20 | Cc1nc(C)c(C(=O)NCCCCCCCCNC(=O)c2ccc3ccccc3c2)nc1C [8–13] | 15.7 ± 0.36 | 14.4 ± 0.03 | 6.42 |  |  |  |  |  | 
2.86 ± 0.18 | 1.14 ± 0.08 | 2.61 ± 0.19 | Cc1nc(C)c(C(=O)NCCCCCCCCCCNC(=O)C=Cc2ccccc2)nc1C [10–1] | 4.36 ± 0.37 | > 20 | 3.82 |  |  |  |  |  | 
> 20 | 8.41 ± 0.18 | 4.19 ± 0.15 | Cc1nc(C)c(C(=O)NCCCCCCCCCCNC(=O)c2cc3ccccc3o2)nc1C [10–2] | 11.7 ± 0.81 | 16.6 ± 0.68 | 1.39 |  |  |  |  |  | 
17.6 ± 1.16 | 4.16 ± 0.25 | 18.5 ± 1.34 | Cc1nc(C)c(C(=O)NCCCCCCCCCCNC(=O)c2cc3ccccc3s2)nc1C [10–3] | 7.26 ± 0.16 | > 20 | 1.75 |  |  |  |  |  | 
> 20 | 13 ± 0.27 | > 20 | Cc1nc(C)c(C(=O)NCCCCCCCCCCNC(=O)c2cc3ccccc3[nH]2)nc1C [10–4] | > 20 | > 20 | >1.54 |  |  |  |  |  | 
> 20 | 5.76 ± 0.13 | 8.72 ± 0.49 | Cc1nc(C)c(C(=O)NCCCCCCCCCCNC(=O)c2cnc3ccccc3c2)nc1C [10–5] | 5.18 ± 0.27 | > 20 | 0.90 |  |  |  |  |  | 

IC50 ([3]; Mus musculus) [µM] | IC50 ([4]; Homo sapiens, MDA-MB-231) [µM] | IC50 ([5]; Homo sapiens, MCF7, 48 h) [µM] | SMILES | IC50 ([1]; Mus musculus, L929, 48 h) [µM] | IC50 ([2]; Homo sapiens, HUVEC) [µM] | SI, selectivity index [4] | IC50 [6] [µM] | IC50 ([1]; 48 h) [µM] | IC50 [2] [µM] | IC50 [3] [µM] | IC50 [4] [µM] | IC50 ([5]; 48 h) [µM]
12 ± 0.54 | 7.76 ± 0.14 | 6.49 ± 0.36 | Cc1nc(C)c(C(=O)NCCCCCCCCCCNC(=O)c2ccc3ncccc3c2)nc1C [10–6] | 8.91 ± 0.12 | 10.2 ± 0.86 | 1.15 | 1.61 to 19.5 |  |  |  |  | 
3.12 ± 0.14 | 6.01 ± 0.11 | 3.37 ± 0.19 | Cc1nc(C)c(C(=O)NCCCCCCCCCCNC(=O)c2ccc3cc[nH]c3c2)nc1C [10–9] | 7.37 ± 0.57 | 9.63 ± 0.53 | 1.23 | 1.61 to 19.5 |  |  |  |  | 
> 20 | 2.83 ± 0.09 | 2.93 ± 0.05 | Cc1nc(C)c(C(=O)NCCCCCCCCCCNC(=O)C=Cc2ccc(Cl)cc2)nc1C [10–10] | 10.1 ± 0.52 | 11.2 ± 0.38 | 3.58 |  |  |  |  |  | 
> 20 | 12.9 ± 1.41 | 3.23 ± 0.03 | COc1ccc(C=CC(=O)NCCCCCCCCCCNC(=O)c2nc(C)c(C)nc2C)cc1OC [10–11] | > 20 | > 20 | >1.55 |  |  |  |  |  | 
> 20 | 3.41 ± 0.12 | 2.86 ± 0.08 | COc1cc(C=CC(=O)NCCCCCCCCCCNC(=O)c2nc(C)c(C)nc2C)cc(OC)c1OC [10–12] | > 20 | > 20 | >5.87 |  |  |  |  |  | 
9.88 ± 0.22 | 4.6 ± 0.29 | 3.09 ± 0.13 | Cc1nc(C)c(C(=O)NCCCCCCCCCCNC(=O)c2ccc3ccccc3c2)nc1C [10–13] | 12.64 ± 0.12 | 10.5 ± 1.24 | 2.75 | 1.61 to 19.5 |  |  |  |  | 
2.66 ± 0.05 | 2.78 ± 0.37 | 1.95 ± 0.06 | Cc1nc(C)c(C(=O)NCCCCCCCCCCCCNC(=O)C=Cc2ccccc2)nc1C [12–1] | 4.75 ± 0.26 | 13.2 ± 1.12 | 1.71 | 1.61 to 19.5 |  |  |  |  | 
3.97 ± 0.01 | 3.38 ± 0.12 | 2.71 ± 0.07 | Cc1nc(C)c(C(=O)NCCCCCCCCCCCCNC(=O)c2cc3ccccc3o2)nc1C [12–2] | 3.78 ± 0.14 | 11 ± 0.68 | 1.12 | 1.61 to 19.5 |  |  |  |  | 
5.13 ± 0.28 | 2.12 ± 0.06 | 3.26 ± 0.16 | Cc1nc(C)c(C(=O)NCCCCCCCCCCCCNC(=O)c2cc3ccccc3s2)nc1C [12–3] | 7.65 ± 0.06 | 7.86 ± 0.01 | 3.61 | 1.61 to 19.5 |  |  |  |  | 
6.62 ± 0.14 | 3.52 ± 0.12 | 3.23 ± 0.18 | Cc1nc(C)c(C(=O)NCCCCCCCCCCCCNC(=O)c2cc3ccccc3[nH]2)nc1C [12–4] | > 20 | > 20 | >5.68 |  |  |  |  |  | 
3.5 ± 0.06 | 2.39 ± 0.12 | 1.36 ± 0.06 | Cc1nc(C)c(C(=O)NCCCCCCCCCCCCNC(=O)c2cnc3ccccc3c2)nc1C [12–5] | 4.18 ± 0.05 | 11.4 ± 0.44 | 1.75 | 1.61 to 19.5 |  |  |  |  | 
4.18 ± 0.09 | 1.98 ± 0.15 | 2.04 ± 0.03 | Cc1nc(C)c(C(=O)NCCCCCCCCCCCCNC(=O)c2ccc3ncccc3c2)nc1C [12–6] | 5.35 ± 0.17 | 7.03 ± 0.05 | 2.70 | 1.61 to 19.5 |  |  |  |  | 
1.63 ± 0.03 | 2.42 ± 0.06 | 2.09 ± 0.06 | Cc1nc(C)c(C(=O)NCCCCCCCCCCCCNC(=O)C=Cc2ccc(Cl)cc2)nc1C [12–10] | 3.82 ± 0.07 | 12.37 ± 0.09 | 1.58 | 1.61 to 19.5 |  |  |  |  | 
2.32 ± 0.14 | 2.42 ± 0.18 | 1.76 ± 0.02 | COc1ccc(C=CC(=O)NCCCCCCCCCCCCNC(=O)c2nc(C)c(C)nc2C)cc1OC [12–11] | > 20 | > 20 | >8.26 |  |  |  |  |  | 
 |  |  | N.N.[Cl][Pt][Cl] [DDP, cisplatin, reference compound] |  |  | 2.64 |  | 8.38 ± 0.23 | 7.46 ± 0.45 | 5.71 ± 0.16 | 3.18 ± 0.06 | 6.25 ± 0.34
> 20 | > 20 | > 20 | Cc1nc(C)c(C)nc1C [TMP, Ligustrazine] | > 20 | > 20 |  |  |  |  |  |  | 

Source: paper PMC9358002, “Synthesis and Discovery of Ligustrazine–Heterocycle Derivatives as Antitumor Agents” (Frontiers in Chemistry, 2022)
